Values of other authors, collected in patent publication US20150374773A1, “Homeopathic Composition Comprising Hypericum Perforatum Extract And Essential Oils For The Treatment Of Neuropathic Pain” (NEURAGEN CORP., priority 2008, published 2015).

Tested on: neuropathic pain
Conditions: literature statement

Structure (SMILES)	efficacy in neuropathic pain
Nc1nnc(-c2cccc(Cl)c2Cl)c(N)n1 [Lamotrigine]	no better than placebo
NCC1(CC(=O)O)CCCCC1 [gabapentin]	effective in painful diabetic neuropathy, mixed neuropathies, and postherpetic neuralgia
